In patent publication US7812015B2, “Prophylaxis and treatment of infectious diseases” (priority 2002, dated 2010):
Where two headings read alike, the source gives them in different places.

Key:
[1] = molecular target: T1, acid sphingomyelinase (ASM) (Homo sapiens, UniProt P17405); assay: Acid sphingomyelinase activity in lysates of Hela cells infected with rhinovirus strain 14 ([14C]sphingomyelin assay); format: cell-based; conditions: rhinovirus strain 14, MOI 25, preincubation with inhibitor
T1 construct: endogenous in cells; host or cells: HeLa cells infected with rhinovirus strain 14
T1 sequence (P17405 47-631): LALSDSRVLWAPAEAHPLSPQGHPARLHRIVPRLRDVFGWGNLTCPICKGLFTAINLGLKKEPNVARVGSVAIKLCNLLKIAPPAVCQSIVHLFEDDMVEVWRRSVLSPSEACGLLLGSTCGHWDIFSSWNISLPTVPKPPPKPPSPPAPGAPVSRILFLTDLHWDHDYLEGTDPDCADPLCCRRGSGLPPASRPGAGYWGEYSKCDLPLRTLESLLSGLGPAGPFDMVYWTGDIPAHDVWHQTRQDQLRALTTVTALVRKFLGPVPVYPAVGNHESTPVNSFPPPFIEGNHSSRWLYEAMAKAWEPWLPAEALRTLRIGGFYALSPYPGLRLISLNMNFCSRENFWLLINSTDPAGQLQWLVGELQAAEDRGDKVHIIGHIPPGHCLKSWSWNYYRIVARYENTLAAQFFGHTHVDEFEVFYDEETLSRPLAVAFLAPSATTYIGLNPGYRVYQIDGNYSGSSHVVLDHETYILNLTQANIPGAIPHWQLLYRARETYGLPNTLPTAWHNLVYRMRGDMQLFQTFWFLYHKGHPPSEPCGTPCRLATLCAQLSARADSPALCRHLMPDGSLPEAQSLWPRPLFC
Protocol: (§1) The cells were infected with rhinoviruses (strain 14, MOI 25), and the sphingomyelinase activity in cell lysates was measured. For this purpose, the cells were washed after the infection, taken up in 250 mM sodium acetate (pH 5.0), 1.3 mM EDTA and 0.05% NP40, disrupted by ultrasound treatment with a sonicator probe at low energy, and incubated with [^14C]sphingomyelin (0.5 μCi/sample, 54.5 mCi/mmol; NEN) for 30 min The in vitro enzyme assay was stopped by adding 800 μl of a 2:1 column mixture of CHCl3 and CH3OH (v/v) and 200 μl of H2O, and the liberation of [^14C]phosphorylcholine into the aqueous supernatant was measured by scintigraphy after organic extraction. […] Hela cells were again infected with rhinoviruses (strain 14) for this purpose. Ceramide was measured by a diacylglycerol (DAG) kinase assay (Grassme et al., Cell 91, 605-615, 1997). Ceramide was converted into [^32P]-ceramide by adding DAG kinase and [^32P]γATP. The phosphorylated ceramide was fractionated by thin layer chromatography and determined by scintigraphy. […] Infection of human epithelial cells by rhinoviruses was measured in flow cytometric analyses of the cytopathic effect of the viruses. […] 2.

ceramide = assay: Ceramide liberation in rhinovirus-infected Hela cells (DAG kinase assay); format: cell-based, human; conditions: Hela cells infected with rhinovirus strain 14, preincubation
Text: (§2) This was shown for Hela cells as example. […] Means±standard deviation for three experiments are shown. […] This is depicted in FIG. 2. […] Means±standard deviation of three experiments are depicted. […] 2. Infection with HIV

rhinovirus strain 14 = assay: Infection of Hela epithelial cells with rhinovirus strain 14, cytotoxic effect by flow cytometry after FITC-annexin staining; format: cell-based, human; conditions: rhinovirus strain 14, 24 h, drug added in serum-free medium 30 min before infection
Text: as §2

Hela epithelial cells = system: Hela epithelial cells
Protocol: as §1

[2] = system: rhinovirus strains (RV14, RV16); assay: Infection of Hela epithelial cells with various rhinovirus strains, cytotoxic effect by FITC-annexin flow cytometry; format: cell-based, human; conditions: RV14 and RV16, 24 h, drug added in serum-free medium 30 min before infection
Text: as §2

| SMILES | activity of acid sphingomyelinase after preincubation of the cells [1] | liberation of ceramide after preincubation of the cells (ceramide) | inhibition of viral infection (cytotoxic effect of the virus) (rhinovirus strain 14) | cytotoxic effect of the drug itself on the cells (Hela epithelial cells; Hela cells) | inhibition of viral infection (cytotoxic effect of the viruses) [2] | cytotoxic effect of the drug itself on the cells (Hela epithelial cells) |
| --- | --- | --- | --- | --- | --- | --- |
| CN(C)CCC=C1c2ccccc2CCc2ccccc21 [amitryptiline] | blocks the activity of acid sphingomyelinase | abolishes the liberation of ceramide | almost completely inhibits the viral infection | no cytotoxic effect | almost completely inhibit the viral infection | – |
| CN(C)CCCN1c2ccccc2CCc2ccccc21 [imipramine] | – | – | almost completely inhibits the viral infection | – | almost completely inhibit the viral infection | no cytotoxic effect |
